Source: patent publication US20170209403A1, “METHOD FOR REGULATING ALDEHYDE DEHYDROGENASE 1” (National Cheng Kung University, priority 2016, published 2017)

Assays:
[1] = system: ALDH1, FoxM1 and Notch-1 expression in ES2 cells; test: Western blotting of ALDH1, FoxM1 and Notch1; format: cell-based, human; settings: ES2-High cells; ATRA
[2] = system: A2780 and CP70 ovarian cancer cells; test: Sphere formation assay; format: cell-based, human; settings: A2780-High and CP70-High cells; 10 μM ATRA for 28 days
Procedure: FIGS. 1A-1F show ALDH1 regulates stemness and tumourigenic ability in ovarian cancer cells. […] A total of 1×10^3 A2780 (upper panel) and CP70 (lower panel) cells were seeded into a 96-well plate to evaluate the cells' sphere formation ability (scale bar=200 μm). DEAB was used to inhibit the reaction of ALDH1 and also served as a negative control. […] The β-actin was used as a protein loading control. The histogram represents the relative fold change of protein expression (right panel). […] A2780-ALDH1 (upper panel) and CP70-shALDH1 (lower panel) cells were seeded into 96-well plates to evaluate their sphere formation ability (scale bar=200 μm).
FIGS. 2A-2D show ALDH1 regulates stemness and tumourigenic ability through the FoxM1 and Notch1 signalling pathways. […] Representative images show spheres generated from single-cell cultures after 10 days. The lower panel depicts the relative sphere formation ratio (scale bar=200 μm). […] V: vector.
(§1) Standard sphere formation assays were performed according to Zhang et al. (Zhang, S. et al. Cancer Res., 68, 4311-4320.) with minor modification. The cells (1×10^3) were resuspended in serum-free DMEM/F12 medium supplemented with 5 μg/ml insulin (Sigma), 20 ng/ml human recombinant epidermal growth factor (EGF; Invitrogen, Life Technologies, Carlsbad, Calif.) and 10 ng/ml basic fibroblast growth factor (bFGF; Invitrogen) in ultra-low attachment plates (Corning Costar, Corning, N.Y.). Spheres that arose within 1-2 weeks were counted. Colony diameters >50 μm were counted as a single-positive colony. The middle field was chosen for counting of spheres, and two fields for each plate were counted under a dissecting microscope. For all sphere formation experiments, a minimum of eight wells was run for each condition. All data represent the mean ±SEM of three separate experiments and at least 24 different fields.
(§2) An Aldefluor® kit (StemCell Technologies) was used to assess ALDH activity in the ovarian cancer cell lines, as previously described (Saw, Y. T. et al. (2012) BMC Cancer, 12, 329.). In brief, 1×10^6 cells were incubated in Aldefluor® assay buffer containing a 1.5 μM ALDH substrate for 30 min at 37° C. Each sample was treated with 50 μM of DEAB, and used as a negative control. Prior to analysis, cells were stained with […] of propidium iodide to evaluate their viability. The fluorescence intensity of the stained cells was analysed using a FACSAria cell sorter Flow Cytometer (BD Biosciences). The reaction with DEAB was used to define the baseline for the assay. The ALDH activity of a sample was determined to be ‘high’ or ‘low’ based on the fluorescence intensity beyond or below the threshold defined by the reaction with DEAB. The cells having high or low ALDH activity are marked “-High” or “-Low” hereafter.

A2780-High tumour = test: Antitumour efficacy of ATRA in mouse xenografts; format: in vivo, NOD/SCID mice
Procedure: (§3) Cell suspensions of 1×10^6 A2780-High or CP70-High cells were inoculated subcutaneously into mice.
(§4) All animal studies adhered to protocols approved by the Institutional Animal Care and Use Committee of National Cheng Kung University Medical Centre. The mouse xenograft model was prepared as previously reported (Molthoff, C. F. et al. (1991) Int. J. Cancer, 47, 72-79). Briefly, cells were implanted in 50% Matrigel (BD Biosciences, San Jose, Calif.) and injected subcutaneously into the left flanks of 4- to 6-week-old female NOD/SCID (NOD.CB17-PRKDC (SCID)) mice. We observed mice for tumour formation every other day after cell inoculation and measured tumour size when it became measurable. Tumour size was measured using Vernier callipers by external measurement of the length and width, and the tumour volume was computed from the formula for an ellipsoid body […]. When the tumours reached ˜2000 mm^3 at approximately 28 days, the mice were sacrificed. […] All tumours were excised, fixed in 10% neutral buffered formalin, and embedded in paraffin for histological assessment or shock-frozen in liquid N2 and stored at −80° C. for further analysis.
as §3

CP70-High tumour = test: Antitumour efficacy of ATRA in mouse xenografts; format: in vivo, NOD/SCID mice; settings: 1×10^6 cells s.c.; ATRA 0.05 or 0.1 mg into the peritoneal cavity three times per week; at 22 days after tumour cell inoculation
Procedure: as §3, §4, §3

[3] = system: ES2 cells (ES2-High, ES2-Low); test: Sphere formation assay; format: cell-based, human; settings: ES2-High cells; ATRA (10 μM)
Procedure: (§5) Right panel: relative fold changes of ALDH1 and FoxM1 expression compared with controls. […] Sphere formation in ES2-High cells after treatment with different concentrations of Thiostrepton or DAPT, and the relative fold changes in expression are shown (scale bar=200 μm).
as §1, §2

[4] = system: A2780-High and CP70-High cells; test: Transwell migration assay; format: cell-based, human; settings: 10 μM ATRA for 28 days
Procedure: (§6) Cells (1×10^5) were seeded on Transwell filters with a pore size of 8 μm (Corning Costar) and were allowed to migrate toward medium containing 10% FBS. After 8 h, the cells on the upper surface of the Transwell membrane were removed with a cotton swab, and the migrated cells (on the underside of the Transwell) were fixed and stained with methanol and Giemsa staining dye (Merck, Darmstadt, Germany). The invasion assay was conducted in the same manner as the migration assay, except that Matrigel (BD Biosciences) was used, the incubation time differed (24 h) and the number of cells added to the upper chamber was 2×10^5 cells. Cell migration and invasion were quantified by counting the migrated cells in six random fields under a light microscope.

ES2-High cells [5] = test: MTT cytotoxicity assay (proliferation, doubling time); format: cell-based, human; settings: ATRA
Procedure: as §5
(§7) The cell lines were cultured in a humidified incubator containing 95% air and 5% CO2 at 37° C. in 96-well flat-bottomed microtiter plates. After 72 h of incubation, the in vitro cytotoxic effects of treatments were determined by MTT assay (at 570 nm).

[6] = system: A2780 and CP70 ovarian cancer cells; test: as above; format: cell-based, human; settings: A2780-High and CP70-High cells; ATRA treatment
Procedure: as §7

CP70-High cells = test: Tumourigenesis of ATRA-pretreated cells in mouse xenograft; format: in vivo, NOD/SCID mice
Procedure: as §4
We then inoculated 1×10^4 ATRA-pretreated A2780-High or CP70-High cells into mice. […] However, these findings were not observed in ES2-Low cells (FIG. 4A and FIG. 4B).

ALDH1 [7] = test: Aldefluor assay of ALDH1 enzyme activity / ALDH1-High cell fraction; format: cell-based, human
Procedure: as §2

A2780-High cells = test: Tumourigenesis of ATRA-pretreated cells in mouse xenograft; format: in vivo, NOD/SCID mice
Procedure: Briefly, cells were implanted in 50% Matrigel (BD Biosciences, San Jose, Calif.) and injected subcutaneously into the left flanks of 4- to 6-week-old female NOD/SCID (NOD.CB17-PRKDC (SCID)) mice. We observed mice for tumour formation every other day after cell inoculation and measured tumour size when it became measurable. Tumour size was measured using Vernier callipers by external measurement of the length and width, and the tumour volume was computed from the formula for an ellipsoid body [volume=(length/2)×(width)]. When the tumours reached ˜2000 mm^3 at approximately 28 days, the mice were sacrificed. […] All tumours were excised, fixed in 10% neutral buffered formalin, and embedded in paraffin for histological assessment or shock-frozen in liquid N2 and stored at −80° C. for further analysis.

ALDH1 [8] = test: Immunohistochemical staining for ALDH1 in tumour tissue sections
[9] = system: ALDH1, FoxM1, Notch1, Oct-4 and Nanog expression in A2780 and CP70 cells; test: Western blotting of ALDH1, FoxM1, Notch1 and CSC markers; format: cell-based, human; settings: A2780-High and CP70-High cells; 10 μM ATRA for 28 days
[10] = system: A2780-High and CP70-High cells; test: Transwell invasion assay; format: cell-based, human; settings: 10 μM ATRA for 28 days
Procedure: as §6

ES2-High cells [11] = test: Transwell migration assay; format: cell-based, human; settings: ATRA
Procedure: as §5, §6

[12] = 1×10^4 cells pretreated with ATRA (10 μM) for 28 days, inoculated into mice
[13] = CP70-High cells pretreated with ATRA, 1 × 10^4 cells injected

## CC1=C(/C=C/C(C)=C/C=C/C(C)=C/C(=O)O)C(C)(C)CCC1 [ATRA, all-trans retinoic acid]
[1]
  ALDH1 expression: inhibited
  FoxM1 expression: inhibited
  Notch1 expression: inhibited
[2]
  sphere formation ability: significantly reduced
A2780-High tumour; 1×10^6 cells s.c., ATRA 0.05 or 0.1 mg into the peritoneal cavity three times per week
  tumour growth: inhibited A2780-High tumour growth in a dose-dependent manner
A2780-High tumour; mouse xenografts, administered doses 0.05 and 0.1 mg
  effective dose for mice: at least 0.05 mg
CP70-High tumour
  tumour growth: significantly suppressed
[3]
  sphere formation ability: inhibited
[4]
  cell migration ability: significantly reduced
ES2-High cells [5]
  proliferation (cell doubling time): did not affect proliferation
[6]
  proliferation (cell doubling time): did not affect proliferation
CP70-High cells; [12]
  tumour size: significant reduction of tumour size
CP70-High cells; [13]
  Number of tumours/number of injections: 4/5
  average tumour volume: (545) mm^3
CP70-High cells; CP70-High cells pretreated with ATRA, calculated with ELDA software
  Tumour-initiating cell frequency: 1/6213
ALDH1 [7]; A2780-High and CP70-High cells, 10 μM ATRA for 28 days
  ALDH1 activity: significantly reduced
ALDH1 [7]; A2780-Low and CP70-Low cells, ATRA (10 μM) or paclitaxel (60 ng/ml) for 4 days
  proportion of ALDH1-High cells: decreased the proportion of ALDH1-High ovarian cancer cells
A2780-High cells; [12]
  tumour formation ability: almost completely abrogated
A2780-High cells; A2780-High cells pretreated with ATRA, 1 × 10^4 cells injected
  Number of tumours/number of injections: 4/9
ALDH1 [8]; ATRA-treated mice compared with control mice
  ALDH1 expression in tumour cells from tissue sections: downregulated
ALDH1 [8]; tumours from ATRA-pretreated ALDH1-High cells
  ALDH1 expression in tumour cells (immunostaining): reduced ALDH1 expression
[9]
  ALDH1 expression: significantly reduced
  FoxM1 expression: significantly reduced
  Notch1 expression: significantly reduced
[10]
  cell invasion ability: significantly reduced
ES2-High cells [11]
  cell migration ability: inhibited
